IC50 data for eleven compounds are collected here from ChEMBL document CHEMBL3352575, “Synthesis, in vitro and in vivo antitumor activity of pyrazole-fused 23-hydroxybetulinic acid derivatives” (Bioorg Med Chem Lett, 2015).

Common to all, as to type: functional, cell-based
Test [1] can be described thus: Antiproliferative activity against human HL60 cells after 72 hrs by MTT assay. The settings on record: HL-60, 72 h.
For test [2], the system named is B16. The test can be described thus: Antiproliferative activity against mouse B16 cells after 72 hrs by MTT assay. The settings on record: B16, 72 h. In general terms: Tetrazolium dyes change colour on reduction, which living cells bring about.
A short description of test [3]: Antiproliferative activity against human Bel7402 cells after 72 hrs by MTT assay. The settings on record: Bel-7402, 72 h.
Test [4] has as its system HeLa. The test can be described thus: Antiproliferative activity against human HeLa cells after 72 hrs by MTT assay.
A short description of test [5]: Antiproliferative activity against human SF763 cells after 72 hrs by MTT assay. The settings on record: SF763, 72 h.

As a reminder, the IC50 is the concentration that inhibits the measured activity by half. A high value points to a need for much substance.

On to `C=C(C)[C@@H]1CC[C@]2(C(=O)OCc3ccccc3)CC[C@]3(C)[C@H](CC[C@@H]4[C@@]5(C)Cc6c[nH]nc6[C@@](C)(CO)[C@@H]5CC[C@]43C)[C@@H]12`, for which the IC50 in test [1] stood at 20.1 µM; in test [2], 13 µM; in test [3] it was 13.9 µM; in test [4] it was 16.1 µM; in test [5] it was 11.7 µM.

Consider `C=C(C)[C@@H]1CC[C@]2(C(=O)OCc3ccccc3)CC[C@]3(C)[C@H](CC[C@@H]4[C@@]5(C)Cc6cn(C(C)=O)nc6[C@@](C)(COC(C)=O)[C@@H]5CC[C@]43C)[C@@H]12`, for which the 50% inhibitory concentration (IC50) in test [1] stood at 33.6 µM; in test [2] it was 28 µM; in test [3], 26.7 µM; in test [4] it was 30.9 µM; in test [5], 28.4 µM.

As to `C=C(C)[C@@H]1CC[C@]2(C(=O)O)CC[C@]3(C)[C@H](CC[C@@H]4[C@@]5(C)Cc6cn(C(C)=O)nc6[C@@](C)(COC(C)=O)[C@@H]5CC[C@]43C)[C@@H]12`, the IC50 in test [1] turned out to be 39.1 µM; in test [2] it was 37.4 µM; in test [3] it was 30.7 µM; in test [4], 33.8 µM; in test [5], 31.5 µM.

For `C=C(C)[C@@H]1CC[C@]2(C(=O)O)CC[C@]3(C)[C@H](CC[C@@H]4[C@@]5(C)Cc6c[nH]nc6[C@@](C)(COC(C)=O)[C@@H]5CC[C@]43C)[C@@H]12`, the IC50 in test [1] came out at 25.1 µM; in test [2], 15.3 µM; in test [3], 17.1 µM; in test [4] it was 17.8 µM; in test [5], 14.1 µM.

For `C=C(C)[C@@H]1CC[C@]2(C(=O)O)CC[C@]3(C)[C@H](CC[C@@H]4[C@@]5(C)Cc6c[nH]nc6[C@@](C)(CO)[C@@H]5CC[C@]43C)[C@@H]12`, the IC50 was 29.1 µM in test [1]; 19.8 µM in test [2]; 21 µM in test [3]; 21.1 µM in test [4]; 20.8 µM in test [5].

In the case of `C=C(C)[C@@H]1CC[C@]2(C(=O)OCC)CC[C@]3(C)[C@H](CC[C@@H]4[C@@]5(C)Cc6cn(C(C)=O)nc6[C@@](C)(COC(C)=O)[C@@H]5CC[C@]43C)[C@@H]12`, the IC50 in test [1] was 40.2 µM; in test [2], 30.2 µM; in test [3] it was 33.7 µM; in test [4], 32.6 µM; in test [5] it was 29.4 µM.

For the compound `C=C(C)[C@@H]1CC[C@]2(C(=O)OCC(=O)OCC)CC[C@]3(C)[C@H](CC[C@@H]4[C@@]5(C)Cc6cn(C(C)=O)nc6[C@@](C)(COC(C)=O)[C@@H]5CC[C@]43C)[C@@H]12`, the IC50 in test [1] turned out to be 45.6 µM; in test [2] it was 35.7 µM; in test [3], 36 µM; in test [4], 40.4 µM; in test [5] it was 37.6 µM.

Turning to `C=CCOC(=O)[C@]12CC[C@@H](C(=C)C)[C@@H]1[C@H]1CC[C@@H]3[C@@]4(C)Cc5cn(C(C)=O)nc5[C@@](C)(COC(C)=O)[C@@H]4CC[C@@]3(C)[C@]1(C)CC2`, the IC50 in test [1] came out at 32.3 µM; in test [2], 19.8 µM; in test [3] it was 23.1 µM; in test [4], 27.4 µM; in test [5] it was 19.5 µM.

For the compound `C=C(C)[C@@H]1CC[C@]2(C(=O)OCC)CC[C@]3(C)[C@H](CC[C@@H]4[C@@]5(C)Cc6c[nH]nc6[C@@](C)(CO)[C@@H]5CC[C@]43C)[C@@H]12`, the IC50 was determined as 21.1 µM in test [1]; 16.1 µM in test [2]; 15.2 µM in test [3]; 16.2 µM in test [4]; 13.3 µM in test [5].

As to `C=CCOC(=O)[C@]12CC[C@@H](C(=C)C)[C@@H]1[C@H]1CC[C@@H]3[C@@]4(C)Cc5c[nH]nc5[C@@](C)(CO)[C@@H]4CC[C@@]3(C)[C@]1(C)CC2`, the IC50 was determined as 24.3 µM in test [1]; 18 µM in test [2]; 17.8 µM in test [3]; 19.5 µM in test [4]; 18.7 µM in test [5].

Regarding `COc1cccc2c1C(=O)c1c(O)c3c(c(O)c1C2=O)C[C@@](O)(C(=O)CO)C[C@@H]3O[C@H]1C[C@H](N)[C@H](O)[C@H](C)O1` [DOXORUBICIN], the IC50 in test [3] amounted to 0.22 µM.
